# Assay results reported in patent US20110166126A1, “Compositions and Methods for Modulating Endophthalmitis Using Fluoroquinolones” (priority 2007, published 2011).
# Entries after “also recorded” stand apart in the source; their conditions may differ.
# Tests used:
# [1] = test system: IL-1β induced IL-8 release in THP-1 monocytes; assay: Effect on IL-1β-induced cytokine (IL-8) release from human THP-1 monocytes (Luminex); type: cell-based; details: for Effect on IL-1β induced IL-8 release / IC50: 18 h; for IC50: Homo sapiens, THP-1, 30 ng/mL IL-1β, four-parameter logistic fit, read-out: IC50 for inhibition of IL-1β induced IL-8 release
# Method: Each treatment was performed in triplicate. Media was collected by centrifugation and used for determination of cytokine content using a cytokine Luminex kit. The alamarBlue assay was performed to evaluate cell viability.
# After determining the optimal concentration of IL-1β to induce cytokine release (30 ng/mL), cells were pre-cultured in RPMI-1640 medium containing 10% dialyzed FBS in a T-75 flask. […] Each treatment was performed in triplicate. Media were collected and used for determination of cytokine content using a cytokine Luminex kit. AlamarBlue assay was performed to evaluate the cell viability.
# (§1) Luminex: Median fluorescence intensity (MFI) was used to obtain the concentration of each cytokines in pg/ml based on the standard curve of each cytokine assayed by Luminex. The linear range of the standard curve for each cytokine was used for determination of cytokine concentration.
# To determine inhibition of IL-1β-induced cytokine release into the medium by dexamethasone or fluoroquinolone compounds as well cell viability, statistical analysis was performed using one-way ANOVA-Dunnett's test on raw data, and P<0.05 was considered statistically significant.
# A concentration vs. effect curve was plotted for experiment 2, using averaged data from selected samples. […] Data were fitted to a re-parameterized four-parameter logistic equation using similar methodology as that previously described, and utilizing the statistical analysis software JMP8.
# [2] = test system: LPS-stimulated cytokine production in human THP-1 monocytes; details: earlier study [8] (PH07025); better potency compared to moxifloxacin; cited from earlier work
# [3] = test system: primary human corneal epithelial cells (HCEpiC); details: earlier study (PH07038); comparable or better potency compared to moxifloxacin; cited from earlier work
# [4] = test system: LPS-stimulated cytokine production in human THP-1 monocytes; assay: Inhibition of LPS-induced cytokine expression in human THP-1 monocytes (multiplex Luminex); type: cell-based; parameters: key to Inhibition of LPS-stimulated G-CSF production / Inhibition of LPS-stimulated GM-CSF production / Inhibition of LPS-stimulated IL-12p40 production / Inhibition of LPS-stimulated IL-1α production / Inhibition of LPS-stimulated IL-1β production / Inhibition of LPS-stimulated IL-1ra production / Inhibition of LPS-stimulated IL-6 production / Inhibition of LPS-stimulated IL-8 production / Inhibition of LPS-stimulated IP-10 production / Inhibition of LPS-stimulated MCP-1 production / Inhibition of LPS-stimulated MIP-1α production / Inhibition of LPS-stimulated VEGF production: “X” signifies significant inhibition at a particular concentration
# Method: Human THP-1 monocytes (ATCC TIB 202) were purchased from American Type Culture Collection (Manassas, Va.) and maintained in RPMI 1640 medium (Invitrogen, Carlsbad, Calif.) supplemented with 10% fetal bovine serum (“FBS”, Invitrogen, Carlsbad, Calif.), 100 U/mL of penicillin (Invitrogen, Carlsbad, Calif.), and 100 μg/mL of streptomycin (Invitrogen, Carlsbad, Calif.) at 37° C. in a humidified incubator with 5% CO2. THP-1 cells were pre-cultured in RPMI 1640 medium containing 10% dialyzed serum for 24 h. […] Each treatment was performed in triplicate.
# Samples were analyzed using multiplex bead technology, which utilizes microspheres as the solid support for immunoassays and allows the analysis of all cytokines from each sample (D. A. Vignali, J. Immunol. Methods, Vol. 243, 243-255 (2000)). Sixteen cytokines were measured according to the manufacturer's instructions. Briefly, 50 μl, of medium samples were incubated with antibody-coated capture beads overnight at 4° C. Washed beads were further incubated with biotin-labeled anti-human cytokine antibodies for 2 hours at room temperature followed by incubation with streptavidin-phycoerythrin for 30 min. Samples were analyzed using Luminex 200™ (Luminex, Austin, Tex.) and Beadview software v1.0 (Upstate Cell Signaling Solutions, Temecula, Calif.). Standard curves of known concentrations of recombinant human cytokines were used to convert fluorescence units (median fluorescence intensity) to cytokine concentration in pg/mL. Only the linear portions of the standard curves were used to quantify cytokine concentrations, and in instances where the fluorescence reading exceeded the linear range of the standard curve, an appropriate dilution was performed to ensure that the concentration was in the linear portion of the curve.
# All cytokine concentrations (pg/mL) were expressed as mean±standard deviation. Statistical analysis comparing effects of treatment across groups was performed using a one-way ANOVA with a Dunnett's post-hoc comparison test using either vehicle control or LPS treatment as references. For all assays, p≦0.05 was predetermined as the criterion of statistical significance.
# [5] = test system: THP-1 monocytes; assay: IL-1β and LPS induced IL-8 release from THP-1 monocytes (experiment 1); type: cell-based, Human; details: 300, 100, 60, 30 and 10 ng/mL, 18 h
# Method: Human monocytic (THP-1) cells were pre-cultured in basal RPMI-1640 medium (commercially available, for example, from Sigma Aldrich) containing 10% dialyzed FBS in a T-75 flask. After 24 h, cells were seeded in 48-well plates in RPMI-1640 medium containing 2% dialyzed FBS at a density of 5.0×10^5 cells/mL with vehicle, IL-1β (300, 100, 60, 30 and 10 ng/mL) and LPS (1 μg/mL) for 18 h (Table 3-1). Each treatment was performed in triplicate. Media were collected and used for determination of cytokine content using a cytokine Luminex kit. The alamarBlue assay was performed to evaluate the cell viability.
# as §1
# Data was expressed as mean±SD. To determine induction of cytokine release into the medium by IL-1β or LPS, statistical analysis was performed using one-way ANOVA-Dunnett's test, and P<0.05 was considered statistically significant.
# [6] = 1 μg/mL, 10 μg/mL LPS, 18 hours
# [7] = 10 μg/mL, 10 μg/mL LPS, 18 hours
# [8] = 30 μg/mL, 10 μg/mL LPS, 18 hours
# [9] = LPS-induced cytokine production, THP-1 monocytes
compound,measurement,setting,value
"N[C@@H]1CCCCN(c2c(F)cc3c(=O)c(C(=O)O)cn(C4CC4)c3c2Cl)C1 [BOL-303224-A, besifloxacin]",Effect on IL-1β induced IL-8 release,[1]; 10 μg/mL,significantly reduced; also recorded: diminished
same,Effect on IL-1β induced IL-8 release,[1]; 30 μg/mL and 10 μg/mL,significantly reduced
same,IC50,[1],7.5 µg/mL
same,Concentration needed to reduce IL-1β-induced IL-8 release relative to moxifloxacin,[1]; THP-1 cells,at a lower concentration than moxifloxacin
same,Effect on lipopolysaccharide (LPS)-stimulated cytokine expression in THP-1 human monocytes,[2],significantly inhibited
same,Effect on IL-1β-stimulated cytokine expression in HCEpiC,[3],significantly inhibited
same,Inhibition of LPS-stimulated IL-1α production,"[4]; 0.1 μg/mL, 10 μg/mL LPS, 18 hours",X
same,Inhibition of LPS-stimulated G-CSF production,[4]; [6],X
same,Inhibition of LPS-stimulated IL-1ra production,[4]; [6],X
same,Inhibition of LPS-stimulated IL-1α production,[4]; [6],X
same,Inhibition of LPS-stimulated IL-6 production,[4]; [6],X
same,Inhibition of LPS-stimulated G-CSF production,[4]; [7],X
same,Inhibition of LPS-stimulated IL-1ra production,[4]; [7],X
same,Inhibition of LPS-stimulated IL-1α production,[4]; [7],X
same,Inhibition of LPS-stimulated IL-6 production,[4]; [7],X
same,Inhibition of LPS-stimulated VEGF production,[4]; [7],X
same,Inhibition of LPS-stimulated G-CSF production,[4]; [8],X
same,Inhibition of LPS-stimulated GM-CSF production,[4]; [8],X
same,Inhibition of LPS-stimulated IL-1ra production,[4]; [8],X
same,Inhibition of LPS-stimulated IL-1α production,[4]; [8],X
same,Inhibition of LPS-stimulated IL-1β production,[4]; [8],X
same,Inhibition of LPS-stimulated IL-6 production,[4]; [8],X
same,Inhibition of LPS-stimulated IL-8 production,[4]; [8],X
same,Inhibition of LPS-stimulated IL-12p40 production,[4]; [8],X
same,Inhibition of LPS-stimulated IP-10 production,[4]; [8],X
same,Inhibition of LPS-stimulated MCP-1 production,[4]; [8],X
same,Inhibition of LPS-stimulated MIP-1α production,[4]; [8],X
same,Inhibition of LPS-stimulated VEGF production,[4]; [8],X
same,Effect on LPS-stimulated production of RANTES,"[4]; 0.1-30 μg/mL, THP-1 monocytes",Neither moxifloxacin nor compound having Formula IV altered
same,Effect on LPS-stimulated production of fractalkine,"[4]; 0.1-30 μg/mL, THP-1 monocytes",Neither moxifloxacin nor compound having Formula IV altered
same,"Effects on GM-CSF, IL-1β, IL-8, IP-10, MCP-1, and MIP-1α after LPS stimulation (comparison of the two fluoroquinolones)",[4]; FIG. 1,comparable effects
same,"Relative potency on G-CSF, IL-1α, IL-1ra, IL-6, and VEGF","[4]; FIG. 2, LPS-stimulated THP-1 monocytes",better potency than moxifloxacin
same,Concentration at which a significant inhibitory effect was observed for G-CSF,[4]; [9],1 µg/mL
same,Concentration at which a significant inhibitory effect was observed for GM-CSF,[4]; [9],30 µg/mL
same,Concentration at which a significant inhibitory effect was observed for IL-1α,[4]; [9],0.1 µg/mL
same,Concentration at which a significant inhibitory effect was observed for IL-1β,[4]; [9],30 µg/mL
same,Concentration at which a significant inhibitory effect was observed for IL-6,[4]; [9],1 µg/mL
same,Concentration at which a significant inhibitory effect was observed for IL-8,[4]; [9],30 µg/mL
same,Concentration at which a significant inhibitory effect was observed for IL-12p40,[4]; [9],30 µg/mL
same,Concentration at which a significant inhibitory effect was observed for IP-10,[4]; [9],30 µg/mL
same,Concentration at which a significant inhibitory effect was observed for MCP-1,[4]; [9],30 µg/mL
same,Concentration at which a significant inhibitory effect was observed for MIP-1α,[4]; [9],30 µg/mL
same,Concentration as low as which a significant inhibitory effect was seen on IL-1α,[4]; LPS-stimulated THP-1 monocytes,100 ng/mL
same,Concentration at which a significant inhibitory effect was seen on G-CSF,[4]; LPS-stimulated THP-1 monocytes,1000 ng/mL
same,Concentration at which a significant inhibitory effect was seen on IL-1ra,[4]; LPS-stimulated THP-1 monocytes,1000 ng/mL
same,Concentration at which a significant inhibitory effect was seen on IL-6,[4]; LPS-stimulated THP-1 monocytes,1000 ng/mL
"COc1c(N2C[C@@H]3CCCN[C@@H]3C2)c(F)cc2c(=O)c(C(=O)O)cn(C3CC3)c12 [Moxifloxacin, moxifloxacin, reference compound]",IC50,[1],10.9 ± 4.8 µg/mL
same,Inhibition of LPS-stimulated IL-12p40 production,[4]; [6],X
same,Inhibition of LPS-stimulated IL-1ra production,[4]; [7],X
same,Inhibition of LPS-stimulated IL-6 production,[4]; [7],X
same,Inhibition of LPS-stimulated IL-12p40 production,[4]; [7],X
same,Inhibition of LPS-stimulated IL-1ra production,[4]; [8],X
same,Inhibition of LPS-stimulated IL-1α production,[4]; [8],X
same,Inhibition of LPS-stimulated IL-1β production,[4]; [8],X
same,Inhibition of LPS-stimulated IL-8 production,[4]; [8],X
same,Inhibition of LPS-stimulated IL-12p40 production,[4]; [8],X
same,Inhibition of LPS-stimulated IP-10 production,[4]; [8],X
same,Inhibition of LPS-stimulated MIP-1α production,[4]; [8],X
same,Inhibition of LPS-stimulated VEGF production,[4]; [8],X
same,Concentration at which a significant inhibitory effect was observed for IL-1ra,[4]; [9],10 µg/mL
same,Concentration at which a significant inhibitory effect was observed for IL-1α,[4]; [9],30 µg/mL
same,Concentration at which a significant inhibitory effect was observed for IL-1β,[4]; [9],30 µg/mL
same,Concentration at which a significant inhibitory effect was observed for IL-6,[4]; [9],10 µg/mL
same,Concentration at which a significant inhibitory effect was observed for IL-8,[4]; [9],30 µg/mL
same,Concentration at which a significant inhibitory effect was observed for IL-12p40,[4]; [9],1 µg/mL
same,Concentration at which a significant inhibitory effect was observed for IP-10,[4]; [9],30 µg/mL
same,Concentration at which a significant inhibitory effect was observed for MIP-1α,[4]; [9],30 µg/mL
"IL-1β: interleukin-1β, used to induce cytokine release in THP-1 cells",Stimulation of IL-8 release,[5],stimulated
